Like-named read-outs stand apart in the source and are kept apart here.
What was measured:
[1] = test system: clinical MDR Staphylococcus epidermidis isolates; experiment: MIC, broth microdilution, 81 clinical MDR strains; format: cell-based; conditions: Staphylococcus epidermidis; for MIC50 / MIC90: 81 clinical strains; for MIC50: concentration inhibiting growth of 50% clinical isolates; for MIC90: concentration inhibiting growth of 90% of clinical isolates
Protocol: 2 Biological assay protocols
Microbiological tests were carried out under aseptic conditions in a laminar chamber of the 2nd […]
(BioTectum 1.2, Alchem Poland). The assessment of antimicrobial activity was carried out for final compounds in the form of free bases, soluble in DMSO (Merck, Germany), at the initial […]
concentration of 1 mg/mL. […]
were provided by Cayman Chemical, USA. […]
The antibacterial activity of selected compounds was also tested on a panel of 81 unrelated, multidrug -resistant clinical strains of Staphylococcus epidermidis from the own collection of the Department of Pharmaceutical Microbiology of the Jagiellonian University Medical College.
2.2 Effect of evaluated compounds on planktonic cells
The susceptibility of three reference bacterial strains (Staphylococcus epidermidis ATCC […]
Table S1) and 81 clinical MDR S. epidermidis (Table S2) to the tested compounds was assessed by determining the MIC value (Minimal Inhibitory Concentration) by microdilution in a liquid medium in 96-well flat-bottom cell culture plates (Nest Biotechnology Scientific, USA). The antibacterial properties of the compo unds were tested in the concentration range from 50 µg/mL to 0.1 µg/mL by making a series of double dilutions of the compound in liquid Mueller -Hinton II Broth Cation Adjusted (MHB II, BBL TM, USA) according to the European Committee on […]
Antimicrobial Susceptibility Testing guidelines (EUCAST).2,3 The determinations were performed twice. The MIC50 and MIC90 values were determined for each of the tested

[2] = test system: Staphylococcus aureus ATCC BAA-976; experiment: MIC, broth microdilution, MDR/BPSA reference strain; format: cell-based; conditions: ATCCBAA976; Staphylococcus aureus ATCC BAA-976; read-out: MIC MDR/BPSA
How it was run: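 Compounds tested as free bases dissolved in DMSO (1 mg/mL stock); determinations done twice; linezolid as positive control.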

[3] = clinical strain 1 (Table S2), read-out: MIC
[4] = clinical strain 2 (Table S2), read-out: MIC
[5] = clinical strain 3 (Table S2), read-out: MIC
[6] = clinical strain 4 (Table S2), read-out: MIC
[7] = clinical strain 5 (Table S2), read-out: MIC
[8] = clinical strain 6 (Table S2), read-out: MIC
[9] = clinical strain 7 (Table S2), read-out: MIC
[10] = clinical strain 8 (Table S2), read-out: MIC
[11] = clinical strain 9 (Table S2), read-out: MIC
[12] = clinical strain 10 (Table S2), read-out: MIC
[13] = clinical strain 11 (Table S2), read-out: MIC
[14] = clinical strain 12 (Table S2), read-out: MIC
[15] = clinical strain 13 (Table S2), read-out: MIC
[16] = clinical strain 14 (Table S2), read-out: MIC
[17] = clinical strain 15 (Table S2), read-out: MIC
[18] = clinical strain 16 (Table S2), read-out: MIC
[19] = clinical strain 17 (Table S2), read-out: MIC
[20] = clinical strain 18 (Table S2), read-out: MIC
[21] = clinical strain 19 (Table S2), read-out: MIC
[22] = clinical strain 20 (Table S2), read-out: MIC
[23] = clinical strain 21 (Table S2), read-out: MIC
[24] = clinical strain 22 (Table S2), read-out: MIC
[25] = clinical strain 23 (Table S2), read-out: MIC
[26] = clinical strain 24 (Table S2), read-out: MIC
[27] = clinical strain 25 (Table S2), read-out: MIC
[28] = clinical strain 26 (Table S2), read-out: MIC
[29] = clinical strain 27 (Table S2), read-out: MIC
[30] = clinical strain 28 (Table S2), read-out: MIC
[31] = clinical strain 29 (Table S2), read-out: MIC
[32] = clinical strain 30 (Table S2), read-out: MIC
[33] = clinical strain 31 (Table S2), read-out: MIC
[34] = clinical strain 32 (Table S2), read-out: MIC
[35] = clinical strain 33 (Table S2), read-out: MIC
[36] = clinical strain 34 (Table S2), read-out: MIC
[37] = clinical strain 35 (Table S2), read-out: MIC
[38] = clinical strain 36 (Table S2), read-out: MIC
[39] = clinical strain 37 (Table S2), read-out: MIC
[40] = clinical strain 38 (Table S2), read-out: MIC
[41] = clinical strain 39 (Table S2), read-out: MIC
[42] = clinical strain 40 (Table S2), read-out: MIC
[43] = clinical strain 41 (Table S2), read-out: MIC
[44] = clinical strain 42 (Table S2), read-out: MIC
[45] = clinical strain 43 (Table S2), read-out: MIC
[46] = clinical strain 44 (Table S2), read-out: MIC
[47] = clinical strain 45 (Table S2), read-out: MIC
[48] = clinical strain 46 (Table S2), read-out: MIC
[49] = clinical strain 47 (Table S2), read-out: MIC
[50] = clinical strain 48 (Table S2), read-out: MIC
[51] = clinical strain 49 (Table S2), read-out: MIC
[52] = clinical strain 50 (Table S2), read-out: MIC
[53] = clinical strain 51 (Table S2), read-out: MIC
[54] = clinical strain 52 (Table S2), read-out: MIC
[55] = clinical strain 53 (Table S2), read-out: MIC
[56] = clinical strain 54 (Table S2), read-out: MIC
[57] = clinical strain 55 (Table S2), read-out: MIC
[58] = clinical strain 56 (Table S2), read-out: MIC
[59] = clinical strain 57 (Table S2), read-out: MIC
[60] = clinical strain 58 (Table S2), read-out: MIC
[61] = clinical strain 59 (Table S2), read-out: MIC
[62] = clinical strain 60 (Table S2), read-out: MIC
[63] = clinical strain 61 (Table S2), read-out: MIC
[64] = clinical strain 62 (Table S2), read-out: MIC
[65] = clinical strain 63 (Table S2), read-out: MIC
[66] = clinical strain 64 (Table S2), read-out: MIC
[67] = clinical strain 65 (Table S2), read-out: MIC
[68] = clinical strain 66 (Table S2), read-out: MIC
[69] = clinical strain 67 (Table S2), read-out: MIC
[70] = clinical strain 68 (Table S2), read-out: MIC
[71] = clinical strain 69 (Table S2), read-out: MIC
[72] = clinical strain 70 (Table S2), read-out: MIC
[73] = clinical strain 71 (Table S2), read-out: MIC
[74] = clinical strain 72 (Table S2), read-out: MIC
[75] = clinical strain 73 (Table S2), read-out: MIC
[76] = clinical strain 74 (Table S2), read-out: MIC
[77] = clinical strain 75 (Table S2), read-out: MIC
[78] = clinical strain 76 (Table S2), read-out: MIC
[79] = clinical strain 77 (Table S2), read-out: MIC
[80] = clinical strain 78 (Table S2), read-out: MIC
[81] = clinical strain 79 (Table S2), read-out: MIC
[82] = clinical strain 80 (Table S2), read-out: MIC
[83] = clinical strain 81 (Table S2), read-out: MIC
[84] = mean of MIC values against clinical MDR-SE isolates, read-out: mean MIC

CC(=O)NC[C@H]1CN(c2ccc(N3CCOCC3)c(F)c2)C(=O)O1 [linezolid, reference compound]
0.4 µg/mL: MIC [1, 42] | MIC [1, 54] | MIC [1, 55]
2.3 µg/mL: MIC [1, 84]
3.12 µg/mL: MIC [1, 50] | MIC [1, 80]
0.2 µg/mL: MIC [1, 51] | MIC [1, 52] | MIC [1, 53]
12.5 µg/mL: MIC [1, 81]
25 µg/mL: MIC [1, 82]
0.8 µg/mL: MIC [1, 14] | MIC [1, 19] | MIC [1, 20] | MIC [1, 28] | MIC [1, 31] | MIC [1, 35] | MIC [1, 38] | MIC [1, 39] | MIC [1, 40] | MIC [1, 41] | MIC [1, 43] | MIC [1, 45] | MIC [1, 47] | MIC [1, 49] | MIC [1, 56] | MIC [1, 57] | MIC [1, 58] | MIC [1, 59] | MIC [1, 60] | MIC [1, 61] | MIC [1, 62] | MIC [1, 63] | MIC [1, 64] | MIC [1, 65] | MIC [1, 66] | MIC [1, 67] | MIC [1, 68] | MIC50 [1]
50 µg/mL: MIC [1, 83]
1.6 µg/mL: MIC [1, 3] | MIC [1, 4] | MIC [1, 5] | MIC [1, 6] | MIC [1, 7] | MIC [1, 8] | MIC [1, 9] | MIC [1, 10] | MIC [1, 11] | MIC [1, 12] | MIC [1, 13] | MIC [1, 15] | MIC [1, 16] | MIC [1, 17] | MIC [1, 18] | MIC [1, 21] | MIC [1, 22] | MIC [1, 23] | MIC [1, 24] | MIC [1, 25] | MIC [1, 26] | MIC [1, 27] | MIC [1, 29] | MIC [1, 30] | MIC [1, 32] | MIC [1, 33] | MIC [1, 34] | MIC [1, 36] | MIC [1, 37] | MIC [1, 44] | MIC [1, 46] | MIC [1, 48] | MIC [1, 69] | MIC [1, 70] | MIC [1, 71] | MIC [1, 72] | MIC [1, 73] | MIC [1, 74] | MIC [1, 75] | MIC [1, 76] | MIC [1, 77] | MIC [1, 78] | MIC [1, 79] | MIC90 [1] | MIC [2]

O=S(=O)(NC1CCN(CCC(Oc2ccc(C(F)(F)F)cc2)c2cccs2)CC1)c1cccc(C(F)(F)F)c1 (centres unmarked) [Compound 21]
6.25 µg/mL: MIC [1, 4] | MIC [1, 5] | MIC [1, 10] | MIC [1, 13] | MIC [1, 24] | MIC [1, 44] | MIC [1, 45]
50 µg/mL: MIC [1, 6] | MIC [1, 8] | MIC [1, 9] | MIC [1, 12] | MIC [1, 14] | MIC [1, 15] | MIC [1, 16] | MIC [1, 17] | MIC [1, 18] | MIC [1, 19] | MIC [1, 20] | MIC [1, 21] | MIC [1, 27] | MIC [1, 28] | MIC [1, 30] | MIC [1, 31] | MIC [1, 32] | MIC [1, 33] | MIC [1, 34] | MIC [1, 35] | MIC [1, 36] | MIC [1, 38] | MIC [1, 39] | MIC [1, 40] | MIC [1, 41] | MIC [1, 42] | MIC [1, 43] | MIC [1, 46] | MIC [1, 47] | MIC [1, 48] | MIC [1, 49] | MIC [1, 50] | MIC [1, 51] | MIC [1, 52] | MIC [1, 53] | MIC [1, 54] | MIC [1, 55] | MIC [1, 56] | MIC [1, 57] | MIC [1, 58] | MIC [1, 59] | MIC [1, 60] | MIC [1, 61] | MIC [1, 62] | MIC [1, 63] | MIC [1, 64] | MIC [1, 65] | MIC [1, 66] | MIC [1, 69] | MIC [1, 70] | MIC [1, 71] | MIC [1, 72] | MIC [1, 73] | MIC [1, 74] | MIC [1, 75] | MIC [1, 76] | MIC [1, 77] | MIC [1, 78] | MIC [1, 80] | MIC [1, 81] | MIC [1, 82] | MIC [1, 83] | MIC50 [1] | MIC90 [1] | MIC [2]
39.4 µg/mL: MIC [1, 84]
25 µg/mL: MIC [1, 37]
0.8 µg/mL: MIC [1, 3] | MIC [1, 25] | MIC [1, 29]
1.6 µg/mL: MIC [1, 7] | MIC [1, 79]
3.12 µg/mL: MIC [1, 11] | MIC [1, 22] | MIC [1, 23] | MIC [1, 26] | MIC [1, 67] | MIC [1, 68]

Reference: paper PMC10945555, “Improving Activity of New Arylurea Agents against Multidrug-Resistant and Biofilm-Producing Staphylococcus epidermidis” (ACS Medicinal Chemistry Letters, 2024)
